Experimental data: a compilation of properties of binary mixtures (doi:10.1007/s10973-014-3978-x)

Experiment: xn = mol fraction of the nth substance listed
Settings: 101 kPa

O=C1CCCC1 + CC[n+]1ccn(C)c1.F[B-](F)(F)F
speed of sound [m/s]
Settings	293.15 K	298.15 K	303.15 K	308.15 K
x1 = 0.0877	1643.2	1628.4	1615.4	–
x1 = 0.1164	1644.4	1629.3	1615.2	1599.6
x1 = 0.1767	1642	1625.9	1611.6	1595.8
x1 = 0.2302	1633.9	1619.2	–	1588.2
x1 = 0.2879	1622.5	1606.5	–	1576.9
x1 = 0.3434	–	1592.4	1577.1	1562.1
x1 = 0.3887	1593.6	1578.2	–	1548
x1 = 0.478	1562.8	–	1530.1	–
x1 = 0.5114	–	1533.8	1517.1	1502.2
x1 = 0.5878	1522.6	1504.6	1486.7	1470.6
x1 = 0.6115	1513.9	1495.8	1477.3	1460.7
x1 = 0.6411	1503.2	1485	1465.7	1448.7
x1 = 0.6834	–	1469.2	1449.6	1431.7
x1 = 0.7649	1462.6	1441.6	1421.2	1402.3
x1 = 0.7867	1456.3	1435.4	1414.3	1394.6
x1 = 0.8157	–	1427	1405.9	1385.8
x1 = 0.8755	–	1412.3	–	1370.4
x1 = 0.9061	1427.6	1406	1384.4	1363.9

CC[n+]1ccn(C)c1.F[B-](F)(F)F + O=C1CCCCC1
speed of sound [m/s]
Settings	293.15 K	298.15 K	303.15 K	308.15 K
x2 = 0.0789	1623.5	1613.7	1602.6	–
x2 = 0.1407	1616.1	1607.6	1595.3	1581
x2 = 0.1861	1609.9	–	1587.8	1573.9
x2 = 0.2271	1603	1593.7	1580.5	1565.6
x2 = 0.2765	–	–	1570.4	–
x2 = 0.3069	1588.5	–	1563.6	–
x2 = 0.3898	1571.3	1560.2	1543.8	1527.9
x2 = 0.4269	1562.9	–	1534.4	1518.2
x2 = 0.489	1548.9	–	1518.4	1501.3
x2 = 0.5007	1545.9	1532.4	1515	1498.2
x2 = 0.5432	1535.6	–	1503.3	1486.5
x2 = 0.6302	1514.1	1499.3	1480.2	1462.4
x2 = 0.6848	–	1484.9	1465.9	1447.8
x2 = 0.7559	1483.3	1467.5	–	1428.7
x2 = 0.779	1477.4	1461.4	1441.7	1423.1
x2 = 0.8235	1467.2	1450.9	1431.5	1412.3
x2 = 0.8675	1457	1440.8	–	–
x2 = 0.9001	1450.6	1433.9	1414.6	1395
